Consider 1 compound from article PMC10298530, “Synthesis and Anticancer Activity of A-Ring-Modified Derivatives of Dihydrobetulin” (International Journal of Molecular Sciences, 2023).

What all share (format): cell-based, human
One test concerns PC-3. In words: MTT cell viability assay, PC-3. To be noted: for IC50: Homo sapiens. The source says:
(§1) Blokhin National Medical Research Center of Oncology (the Ministry of Health of the Russian Federation, Moscow).
(Tetrazolium assays rely on reduction of a dye to a coloured formazan, in cell work by metabolically active cells.)

Test [1] has as its system HBL-100/Dox cells. In words: Combined action of compounds, MTT assay on HBL-100/Dox cells. An excerpt: The results were expressed pictorially using Prism 6.0 (GraphPad Software, Boston, MA, USA).
The subject of a further test is RD TE32. The test is described as follows: MTT cell viability assay, RD TE32. To be noted: for IC50: Homo sapiens.
Text: as §1

The next test relates to HBL-100/Dox. In words: MTT cell viability assay, HBL-100/Dox. The procedure: The cells were cultured in a humidified CO2 incubator (model 460-CE; Thermo Fisher Scientific, Waltham, MA, USA) at +37 °C and 5% CO2.
The percentage of the viable cells was calculated according to the following equation: cell viability (%) = 100 × (mean absorbance in the treatment group/mean absorbance in the control group). The results were expressed pictorially using Prism 6.0 (GraphPad Software, Boston, MA, USA).

Test [2] concerns HBL-100/Dox cells. The test is described as follows: Western blotting of cytochrome c, cleaved caspase-9 and -8, HBL-100/Dox. To be noted: 16 h, IC50. The procedure:
The supernatant (cytosol fraction) and mitochondrial pellets were then collected, and protein concentration was determined by UV […] using 1–100 μg/mL BSA as standard curve concentrations (UV-2600i spectrophotometer; Shimadzu, Tokyo, Japan).
Then, the same protein amounts (20.0 µg in each lane) were loaded and separated by 4–20% Mini-PROTEAN TGX Stain-Free Protein Gels (Bio-Rad Laboratories, Hercules, CA, USA), followed by transferring onto polyvinylidene difluoride (PVDF) membranes. The membranes were blocked with 1% (w/v) casein in Tris-buffered saline containing 0.1% Tween-20 (TBS-T), and were incubated overnight with primary antibodies (1:1000) of Cytochrome c (D18C7) Rabbit mAb, Cleaved Caspase-9 (Asp330) (E5Z7N) Rabbit mAb, Cleaved Caspase-8 (Asp374) (18C8) Rabbit mAb, and β-Actin (D6A8) Rabbit mAb (Cell Signaling Technology, Danvers, MA, USA) for cytosol and mitohondrial fractions at 4 °C. The next day, the PVDF membranes were washed thrice in TBS-T and incubated with HRP-conjugated secondary antibodies (1:1000) (Cell Signaling Technology, Danvers, MA, USA) for 1 h at RT. Immunoreactive proteins were detected by Clarity Western ECL Substrate (Bio-Rad Laboratories, Hercules, CA, USA) and then analyzed on the ChemiDoc MP Imaging system (Bio-Rad Laboratories, Hercules, CA, USA). The proteins were quantified by densitometry using Image Lab software (version 6.0; Bio-Rad Laboratories, Hercules, CA, USA). To normalize protein expression data, a blot with β-Actin was used.
In general terms: A western blot detects proteins with antibodies after separation by electrophoresis.

Another test deals with MS. In words: MTT cell viability assay, MS.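 For IC50 (mean ± SD): MS is a melanocyte cell line.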 The following applies: for IC50: Homo sapiens.
Text: as §1

Test [3] deals with Active Caspase-3 in HBL-100 cells. In words: Flow cytometric analysis of active caspase-3, HBL-100. The following applies: 24 h. The procedure:
The cells were detached with accutase (HiMedia Laboratories, Maharashtra, India) and then fixed with 70% ice cold ethanol followed by overnight incubation at 4 °C. The cells were washed twice with PBS, permeabilized using 0.1% Triton X-100 in PBS solution, and subsequently stained with 5 μL of the BD Horizon™ BV605 Rabbit Anti-Active Caspase-3 antibody (BD Biosciences, Franklin Lakes, NJ, USA). The cells were then washed, resuspended in PBS, and analyzed using a CytoFlex S flow cytometer (Beckman Coulter, Brea, CA, USA). Cell fluorescence was evaluated on a CytoFlex S flow cytometer (Beckman Coulter, Brea, CA, USA). The results were analyzed using FlowJo software (ver. X 10.0.7r2, FlowJo Software, San Jose, CA, USA) and represented as geometric mean fluorescence intensity (gMFI).
On the technique in general: A flow cytometer gives signals particle by particle.

In another test the test system is HEpG2. In words: MTT cell viability assay, HEpG2. The following applies: for IC50: Homo sapiens.
Text: as §1

Where two headings read alike, the source gives them in different places.

As a reminder, the IC50 is the concentration needed to halve the response being measured. For `COC(=O)[C@]12CC[C@@H](C(C)C)[C@@H]1[C@H]1CC[C@@H]3[C@@](C)(CCC#N)[C@H](C(=O)C(Br)Br)CC[C@@]3(C)[C@]1(C)CC2` [compound 31, 2-Cyano-24,24-dibromo-4-oxo-3,4-seco-3,23-dinorlupan-28-oic acid methyl ester], the concentration for half-maximal inhibition (IC50) amounted to 10.4 ± 1.3 µM in the test with PC-3 (PC-3, MTT, 72 h of treatment, read-out: IC50 Values (Mean ± SD)); 10.3 ± 1.27 µM with PC-3 (Table S1, PC-3, read-out: IC50 (mean ± SD)); 0.7 ± 0.1 µM with RD TE32 (RD TE32, MTT, 72 h of treatment, read-out: IC50 Values (Mean ± SD)); 0.66 ± 0.04 µM in the test with RD TE32 (Table S1, RD TE32, read-out: IC50 (mean ± SD)); 1.8 ± 0.1 µM in the test with HBL-100/Dox (Homo sapiens, HBL-100, 72 h, read-out: IC50 Values (Mean ± SD)); 16.5 ± 1.5 µM in the test on MS (MS, MTT, 72 h of treatment, read-out: IC50 Values (Mean ± SD)). In addition, the IC50 is 16.5 ± 1.53 µM in the test with MS (Table S1, MS, read-out: IC50 (mean ± SD)); 16.6 ± 0.4 µM in the test with HEpG2 (HEpG2, MTT, 72 h of treatment, read-out: IC50 Values (Mean ± SD)); 16.6 ± 0.41 µM in the test with HEpG2 (Table S1, HEpG2, read-out: IC50 (mean ± SD)). The “Selectivity index (SI)” value with PC-3 (ratio of IC50 values healthy (HEK293) / PC-3) is recorded as 1.11; with RD TE32 (ratio of IC50 values healthy (HEK293) / RD TE32), 16.43; in the test with HBL-100/Dox (ratio of IC50 values healthy (HEK293) / HBL-100/Dox), 6.39; with MS (ratio of IC50 values healthy (HEK293) / MS), 0.70; in the test on HEpG2 (ratio of IC50 values healthy (HEK293) / HEpG2), 0.69. In addition, the “number of living cells, compound vs its combination with verapamil” value in the test with HBL-100/Dox cells [1] (72 h, 30 μM verapamil) is on record as “remained unchanged”. Moreover, in the test on HBL-100/Dox cells [1] (MK 0.6 μM combined with Dox), the “potentiation in the effectiveness of Dox” value was “no potentiation”. In addition, in the test with HBL-100/Dox (HBL-100/Dox, MK at IC50 dose, after 72 h exposure), the “death of the cells” value is on record as 50%. In addition, the “activation of caspase-8” value in the test with HBL-100/Dox cells [2] is listed as “not observed”. For the same compound, the “activation of caspase-9” value in the test on HBL-100/Dox cells [2] is listed as “sequential activation of initiator caspase-9”. Further, the “cytochrome c release” value in the test with HBL-100/Dox cells [2] is “provoked the release of cytochrome c from mitochondria to cytosol”. Besides, the “gMIF, Active Caspase-3” value in test [3] (dose 2×IC50) is given as 11048±278; in test [3] (dose IC50), 6755±301.
